Values quoted from earlier work as cited in PMC11956011, “An Amazing 30-Year Journey around the DABO Family: A Medicinal Chemistry Lesson on a Versatile Class of Non-nucleoside HIV-1 Reverse Transcriptase Inhibitors” (Journal of Medicinal Chemistry, 2025).
Where two headings read alike, the source gives them in different places.

Legend:
HIV-1 = conditions: for IC50: read-out: IC50 (HIV-1 cytopathic effect in cells)
[1] = test system: K103N HIV-1 mutant strain; conditions: for Fold-resistance K103N (EC50): Fig 10, in brackets
[2] = test system: Y181C HIV-1 mutant strain; conditions: for Fold-resistance Y181C (EC50): Fig 10, in brackets
[3] = test system: Y188L HIV-1 mutant strain
[4] = test system: HIV-1 RT (WT, recombinant); conditions: for IC50: read-out: IC50 (HIV-1 RT)
Y181I HIV-1 RT = conditions: for ID50: Y181I: Fig 10; for Fold-resistance Y181I RT (ID50): Fig 10, in brackets
L100I HIV-1 RT = conditions: for Fold-resistance L100I RT (ID50): Fig 10, in brackets
[5] = Fig 10, read-out: EC50: NL4-3 wt
[6] = read-out: EC50 against WT HIV-1
[7] = Fig 5, read-out: EC50: NL4-3 wt

Cc1c(Cc2c(Cl)cccc2Cl)nc(SCC(=O)Nc2ccc(Cl)cc2)[nH]c1=O [compound 105]
SI (HIV-1; Fig 10): > 836
CC50 (mock-infected cells; Fig 10): > 267000 nM

CCc1c(Cc2c(F)cccc2Cl)nc(SCC(=O)c2ccc(F)cc2)[nH]c1=O [compound 103]
EC50 (HIV-1 NL4-3 wt; [5]): 5 nM
EC50 ([1]; Fig 10): 4140 nM
Fold-resistance K103N (EC50) [1]: 828
EC50 ([2]; Fig 10): 1930 nM
Fold-resistance Y181C (EC50) [2]: 386
EC50 ([3]; Fig 10): > 57000 nM
ID50: WT ([4]; Fig 10): 33 nM
ID50: Y181I (Y181I HIV-1 RT): 380 nM
Fold-resistance Y181I RT (ID50) (Y181I HIV-1 RT): 12
ID50: L100I (L100I HIV-1 RT; Fig 10): 5600 nM
Fold-resistance L100I RT (ID50) (L100I HIV-1 RT): 170
SI (HIV-1; Fig 10): > 11400
CC50 (mock-infected cells; Fig 10): > 57000 nM

COc1cc(F)c(C(=O)c2ccnc(Nc3ccc(C#N)cc3)n2)c(F)c1 [compound 169]
EC50: Y181C ([2]; Fig 12, DAPY-DABO carbonyl hybrids): no activity

Cc1c(Cc2c(Cl)cccc2Cl)nc(SCc2cn(Cc3ccc(S(N)(=O)=O)cc3)nn2)[nH]c1=O [compound 93]
EC50 (HIV-1; Fig 9): 3220 nM
SI (HIV-1; Fig 9): 30

Cc1c(C(C)c2c(F)cccc2F)nc(SCc2ccc(C#N)cc2)[nH]c1=O (stereo not shown) [compound 141]
EC50 (HIV-1 NL4-3 wt; [6]): 7.8 nM

CC(c1cc(=O)[nH]c(SC2CCCC2)n1)c1c(F)cccc1Cl (stereo not shown) [compound 40]
EC50 (HIV-1 NL4-3 wt; [7]): 0.3 nM
EC50 ([1]; Fig 5): 900 nM
EC50 ([2]; Fig 5): 3000 nM
EC50 ([3]; Fig 5): > 71000 nM
ID50: WT ([4]; Fig 5): 15 nM
ID50: L100I (L100I HIV-1 RT; Fig 5): 1100 nM
CC50 (mock-infected cells; Fig 5): > 71000 nM

CCC(C)Oc1nc(N)cc(S(=O)(=O)c2cccc(C)c2)n1 (stereo not shown) [compound 22]
SI (HIV-1; Fig 4): > 43
CC50 (mock-infected cells; Fig 4): > 200000 nM

CC(C)c1c(Cc2c(Cl)cccc2Cl)nc(SCC(=O)c2ccccc2)[nH]c1=O [compound 102]
EC50 (HIV-1 NL4-3 wt; [5]): 4 nM
EC50 ([1]; Fig 10): 5100 nM
Fold-resistance K103N (EC50) [1]: 1275
EC50 ([2]; Fig 10): 110 nM
Fold-resistance Y181C (EC50) [2]: 27
EC50 ([3]; Fig 10): 5500 nM
Fold-resistance Y188L (EC50) ([3]; Fig 10, in brackets): 1375
ID50: WT ([4]; Fig 10): 31 nM
ID50: Y181I (Y181I HIV-1 RT): 16800 nM
Fold-resistance Y181I RT (ID50) (Y181I HIV-1 RT): 542
ID50: L100I (L100I HIV-1 RT; Fig 10): 10100 nM
Fold-resistance L100I RT (ID50) (L100I HIV-1 RT): 326
SI (HIV-1; Fig 10): > 14000
CC50 (mock-infected cells; Fig 10): > 56000 nM

CCc1c(Cc2ccccc2Br)nc(SCc2ccc([N+](=O)[O-])cc2)[nH]c1=O [compound 88]
SI (HIV-1; Fig 9): > 368
IC50 (HIV-1; Fig 9): 740 nM
CC50 (mock-infected cells; Fig 9): > 272000 nM

Cc1c(C(C)c2c(F)cccc2Cl)nc(SC2CCCC2)[nH]c1=O (stereo not shown) [compound 43]
EC50 (HIV-1 NL4-3 wt; [7]): 0.03 nM
EC50 ([1]; Fig 5): 93 nM
EC50 ([2]; Fig 5): 230 nM
EC50 ([3]; Fig 5): 2900 nM
ID50: WT ([4]; Fig 5): 11 nM
ID50: L100I (L100I HIV-1 RT; Fig 5): 120 nM
CC50 (mock-infected cells; Fig 5): > 15000 nM

CC(=O)c1ccc(Cn2cc(CSc3nc(Cc4c(Cl)cccc4Cl)c(C)c(=O)[nH]3)nn2)cc1 [compound 92]
EC50 (HIV-1; Fig 9): 3860 nM
SI (HIV-1; Fig 9): 8

Cc1c(Cc2c(Cl)cccc2Cl)nc(SCC(=O)Nc2ccc(F)c(F)c2)[nH]c1=O [compound 108]
SI (HIV-1; Fig 10): > 387
CC50 (mock-infected cells; Fig 10): > 266000 nM

COc1ccc(Cn2cc(CSc3nc(Cc4c(Cl)cccc4Cl)c(C)c(=O)[nH]3)nn2)cc1 [compound 94]
SI (HIV-1; Fig 9): 6

CCC(C)Sc1nc(O)cc(Cc2c(Cl)cccc2Cl)n1 (stereo not shown) [compound 28]
IC50 ([4]; Fig 5): 100 nM
SI (HIV-1; Fig 5): > 1428
CC50 (mock-infected cells; Fig 5): > 200000 nM

Cc1cccc(Cc2cc(=O)[nH]c(OC3CCCCC3)n2)c1 [compound 6]
SI (HIV-1; CC50/EC50, Fig 3): > 400

CCCCSc1nc(C(C)c2c(F)cccc2Cl)cc(=O)[nH]1 (stereo not shown) [compound 39]
EC50 (HIV-1 NL4-3 wt; [7]): 0.3 nM
EC50 ([1]; Fig 5): 1100 nM
EC50 ([2]; Fig 5): 3900 nM
EC50 ([3]; Fig 5): 5600 nM
ID50: WT ([4]; Fig 5): 10 nM
ID50: L100I (L100I HIV-1 RT; Fig 5): 600 nM
CC50 (mock-infected cells; Fig 5): > 73000 nM

Cc1c(Cc2c(Cl)cccc2Cl)nc(SCC(=O)Nc2ccc(Br)cc2)[nH]c1=O [compound 106]
SI (HIV-1; Fig 10): > 1326
CC50 (mock-infected cells; Fig 10): > 244000 nM

Nc1cc(Cl)nc(Sc2ccccc2)n1 [compound 20]
EC50 (HIV-1; Fig 4): 90000 nM
SI (HIV-1; Fig 4): 2.3

CCc1c(Cc2cc(C)cc(C)c2)nc(SCc2ccc([N+](=O)[O-])cc2)[nH]c1=O [compound 91]
SI (HIV-1; Fig 9): > 1906
IC50 (HIV-1; Fig 9): 160 nM
CC50 (mock-infected cells; Fig 9): > 305000 nM

2-(cyclopentylthio)-6-[(1R)-1-(2,6-difluorophenyl)ethyl]-5-methyl-4(3H)-pyrimidinone [[+]-38]
IC50 ([4]; Fig 5, printed without unit): 8 nM
EC50 (HIV-1): 2 nM
SI (HIV-1): > 100000
CC50 (mock-infected cells; Fig 5): > 200000 nM

CCCCSc1nc(O)c(C)c(C(C)c2c(F)cccc2F)n1 (stereo not shown) [compound 37]
EC50 (HIV-1; Fig 5, MT-4 cells): 8 nM

CCC(C)Sc1nc(O)cc(C(C)c2c(F)cccc2F)n1 (stereo not shown) [compound 34]
SI (HIV-1; Fig 5): > 6666
EC50 (HIV-1; Fig 5, MT-4 cells): 30 nM
CC50 (mock-infected cells; Fig 5): > 200000 nM

CCN(CC)CCc1cc(=O)[nH]c(SC)n1 [compound 184]
CC50 (mock-infected cells): 250 µg/mL

CCc1c(Cc2ccccc2Br)nc(SCc2ccc(OC)cc2)[nH]c1=O [compound 87]
SI (HIV-1; Fig 9): 717
IC50 (HIV-1; Fig 9): 230 nM
CC50 (mock-infected cells; Fig 9): 165000 nM

Nc1nc2c(c(=O)[nH]1)CCC2c1ccccc1 (stereo not shown) [compound 27, 2-amino-7-phenyl-6,7-dihydro-5H-cyclopenta[d]-4(3H)-pyrimidinone]
anti-HIV-1 activity (in words) (HIV-1): lacked anti-HIV-1 activity

CCc1c(Cc2cc(C)cc(C)c2)nc(SCc2ccc(OC)cc2)[nH]c1=O [compound 90]
SI (HIV-1; Fig 9): > 2642
IC50 (HIV-1; Fig 9): 120 nM
CC50 (mock-infected cells; Fig 9): > 317000 nM

CCC(C)Sc1nc(O)cc(Cc2c(F)cccc2F)n1 (stereo not shown) [compound 31]
IC50 ([4]; Fig 5): 50 nM
SI (HIV-1; Fig 5): > 5000
CC50 (mock-infected cells; Fig 5): > 200000 nM

CCOCn1c(Cc2ccccc2)c(C(C)C)c(=O)[nH]c1=O [Emivirine, reference compound]
EC50 (HIV-1; Fig 4): 4.2 nM
SI (HIV-1; Fig 4): 44000
CC50 (mock-infected cells): 186000 nM

CCOC1CSc2nc(=O)c(CC)c(Cc3cc(C)cc(C)c3)n21 (stereo not shown) [compound 24]
SI (HIV-1; CD50/ED50, Fig 4): > 140
ED50 (HIV-1; Fig 4): 700 nM
CD50 (mock-infected cells; Fig 4): > 100 µM

Cc1cc(=O)[nH]c(SCCN2C(=O)c3ccccc3C2=O)n1 [compound 74]
SI (HIV-1; Fig 9): 61.6

O=C1c2ccccc2C(=O)N1CCSc1nc(Cc2c(F)cccc2F)cc(=O)[nH]1 [compound 75]
EC50 (HIV-1; Fig 9): 17000 nM
SI (HIV-1; Fig 9): > 5.9
CC50 (mock-infected cells; Fig 9): > 100000 nM

CCc1c(Cc2cccc(Br)c2)nc(SCc2ccc(OC)cc2)[nH]c1=O [compound 89]
SI (HIV-1; Fig 9): 718
IC50 (HIV-1; Fig 9): 280 nM
CC50 (mock-infected cells; Fig 9): 201000 nM

CCC(C)Sc1nc(O)c(C)c(Cc2c(Cl)cccc2Cl)n1 (stereo not shown) [compound 29]
IC50 ([4]; Fig 5): 60 nM
SI (HIV-1; Fig 5): > 4000
CC50 (mock-infected cells; Fig 5): > 200000 nM

CCC(C)Oc1nc(Cc2cc(C)cc(C)c2)c(C)c(=O)[nH]1 (stereo not shown) [compound 7]
SI (HIV-1; CC50/EC50, Fig 3): > 400

Cc1c(C(C)c2c(F)cccc2Cl)nc(SC(C)C)[nH]c1=O (stereo not shown) [compound 41]
EC50 ([1]; Fig 5): 140 nM
EC50 ([2]; Fig 5): 250 nM
EC50 ([3]; Fig 5): 3400 nM
CC50 (mock-infected cells; Fig 5): > 15000 nM

COc1ccc(CSc2nc(C(C)c3c(F)cccc3F)c(C)c(=O)[nH]2)cc1 (stereo not shown) [compound 140, 6-[1-(2,6-difluorophenyl)ethyl]-2-[(4-methoxybenzyl)thio]-5-methyl-4(3H)-pyrimidinone]
EC50 (HIV-1 NL4-3 wt; [6]): 0.025 nM

CCCSc1nc(C(C)c2c(F)cccc2Cl)c(C)c(=O)[nH]1 (stereo not shown) [compound 42]
EC50 (HIV-1 NL4-3 wt; [7]): 0.05 nM
EC50 ([1]; Fig 5): 350 nM
EC50 ([2]; Fig 5): 260 nM
EC50 ([3]; Fig 5): > 1500 nM
ID50: WT ([4]; Fig 5): 0.9 nM
ID50: L100I (L100I HIV-1 RT; Fig 5): 90 nM
CC50 (mock-infected cells; Fig 5): > 1500 nM

Cc1c(C(C)c2c(F)cccc2F)nc(SCc2ccc([N+](=O)[O-])cc2)[nH]c1=O (stereo not shown) [compound 142]
EC50 (HIV-1 NL4-3 wt; [6]): 3.3 nM
